Target: T1, human full-length recombinant PKC βII (Homo sapiens, UniProt P05771)
T1 construct: Active human full-length recombinant PKC βII; purchased Invitrogen GmbH, Darmstadt, Germany
Test: Determination of PKC βII inhibition (Caliper mobility-shift kinase assay, Fluorescein-RFARKGSLRQKNV peptide substrate)
Assay type: biochemical
Conditions: example compounds at a final concentration of 1.14 μM (±0.15 μM)
Method in brief: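 Compounds were tested at 1.14 μM final. Enzyme was activated by PS, DAG and CaCl2 in Hepes pH 7.4 with MgCl2, with substrate 3 μM and ATP 120 μM as pre-mix concentrations. After 60 min at 32 °C and an EDTA stop, Caliper separation gave fractional turnover, which was normalised to no-compound and no-enzyme controls.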

T1 sequence (P05771 1-673 isoform P05771-2): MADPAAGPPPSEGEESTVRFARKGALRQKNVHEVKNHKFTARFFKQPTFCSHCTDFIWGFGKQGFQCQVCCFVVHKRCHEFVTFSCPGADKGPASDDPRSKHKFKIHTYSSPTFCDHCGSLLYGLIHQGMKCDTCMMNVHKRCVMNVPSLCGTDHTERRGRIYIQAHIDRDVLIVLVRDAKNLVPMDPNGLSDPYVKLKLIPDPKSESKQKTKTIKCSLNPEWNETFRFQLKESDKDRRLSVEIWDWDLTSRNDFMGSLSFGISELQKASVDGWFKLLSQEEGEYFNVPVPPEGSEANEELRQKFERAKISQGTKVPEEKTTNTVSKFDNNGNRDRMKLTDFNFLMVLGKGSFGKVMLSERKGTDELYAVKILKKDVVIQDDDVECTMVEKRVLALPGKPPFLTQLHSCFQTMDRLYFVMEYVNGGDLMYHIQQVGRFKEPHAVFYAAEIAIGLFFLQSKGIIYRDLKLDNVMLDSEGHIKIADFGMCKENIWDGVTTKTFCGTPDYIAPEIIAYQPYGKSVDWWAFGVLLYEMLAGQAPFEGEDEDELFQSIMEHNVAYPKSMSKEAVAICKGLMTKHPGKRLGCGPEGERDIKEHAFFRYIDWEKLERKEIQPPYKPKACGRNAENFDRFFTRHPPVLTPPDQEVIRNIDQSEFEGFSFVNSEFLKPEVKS

First: Cc1n[nH]c2nc(-c3ccc(O)cc3)cc(C(=O)NCCC3CCCN3C)c12 (stereo not shown) [Example 218, 6-(4-Hydroxy-phenyl)-3-methyl-1H-pyrazolo[3,4-b]pyridine-4-carboxylic acid [2-(1-methyl-pyrrolidin-2-yl)-ethyl]-amide]
Second: Cc1n[nH]c2nc(-c3ccc(O)cc3)cc(C(=O)NC3CCN(C)CC3)c12 [Example 220, 6-(4-Hydroxy-phenyl)-3-methyl-1H-pyrazolo[3,4-b]pyridine-4-carboxylic acid (1-methyl-piperidin-4-yl)-amide]
The inhibition at 1.14 µM of the first is lower: 85% for the first, 88% for the second.

Going from `Cc1n[nH]c2nc(-c3ccc(O)cc3)cc(C(=O)NC3CC4CCC(C3)N4C)c12` (stereo not shown) [Example 219, 6-(4-Hydroxy-phenyl)-3-methyl-1H-pyrazolo[3,4-b]pyridine-4-carboxylic acid (8-methyl-8-aza-bicyclo[3.2.1]oct-3-yl)-amide] to `Cc1n[nH]c2nc(-c3ccc(O)cc3)cc(C(=O)NC3CC4CCCC(C3)N4C)c12` (stereo not shown) [Example 223, 6-(4-Hydroxy-phenyl)-3-methyl-1H-pyrazolo[3,4-b]pyridine-4-carboxylic acid (9-methyl-9-aza-bicyclo[3.3.1]non-3-yl)-amide], the inhibition at 1.14 µM falls from 89% to 74%.

Compared with `Cc1n[nH]c2nc(-c3ccc(O)cc3)cc(C(=O)N3CCNC(C)C3)c12` (stereo not shown) [Example 221, [6-(4-Hydroxy-phenyl)-3-methyl-1H-pyrazolo[3,4-b]pyridin-4-yl]-(3-methyl-piperazin-1-yl)-methanone], `Cc1n[nH]c2nc(-c3ccc(O)cc3)cc(C(=O)N3CCN[C@@H](C(C)C)C3)c12` [Example 233, [6-(4-Hydroxy-phenyl)-3-methyl-1H-pyrazolo[3,4-b]pyridin-4-yl]-((S)-3-isopropyl-piperazin-1-yl)-methanone] is lower in inhibition at 1.14 µM: 100% for the first, 95% for the second.

Going from `Cc1n[nH]c2nc(-c3ccc(O)cc3)cc(C(=O)N[C@@H]3CCCNC3)c12` [Example 222, 6-(4-Hydroxy-phenyl)-3-methyl-1H-pyrazolo[3,4-b]pyridine-4-carboxylic acid (R)-piperidin-3-ylamide] to `Cc1n[nH]c2nc(-c3ccc(O)cc3)cc(C(=O)NC3CCCNC3)c12` (stereo not shown) [Example 242, 6-(4-Hydroxy-phenyl)-3-methyl-1H-pyrazolo[3,4-b]pyridine-4-carboxylic acid piperidin-3-ylamide], the inhibition at 1.14 µM falls from 97% to 87%.

First: Cc1n[nH]c2nc(-c3ccc(O)cc3)cc(C(=O)N3CCNC[C@H]3Cc3ccccc3)c12 [Example 224, ((R)-2-Benzyl-piperazin-1-yl)-[6-(4-hydroxy-phenyl)-3-methyl-1H-pyrazolo[3,4-b]pyridin-4-yl]-methanone]
Second: Cc1n[nH]c2nc(-c3ccc(O)cc3)cc(C(=O)N3CCNC[C@@H]3Cc3ccccc3)c12 [Example 225, ((S)-2-Benzyl-piperazin-1-yl)-[6-(4-hydroxy-phenyl)-3-methyl-1H-pyrazolo[3,4-b]pyridin-4-yl]-methanone]
The inhibition at 1.14 µM of the first is higher: 92% for the first, 85% for the second.

Going from `Cc1n[nH]c2nc(-c3ccc(O)cc3)cc(C(=O)N3CCC4CNCC43)c12` (stereo not shown) [Example 226, (Hexahydro-pyrrolo[3,4-b]pyrrol-1-yl)-[6-(4-hydroxy-phenyl)-3-methyl-1H-pyrazolo[3,4-b]pyridin-4-yl]-methanone] to `Cc1n[nH]c2nc(-c3ccc(O)cc3)cc(C(=O)N3CCCC4CNCCC43)c12` (stereo not shown) [Example 230, [6-(4-Hydroxy-phenyl)-3-methyl-1H-pyrazolo[3,4-b]pyridin-4-yl]-(octahydro-[1,6]naphthyridin-1-yl)-methanone], the inhibition at 1.14 µM falls from 95% to 93%.

Going from `Cc1n[nH]c2nc(-c3ccc(O)cc3)cc(C(=O)N3C[C@H]4CC[C@@H](C3)C4N)c12` (stereo partly shown) [Example 227, (8-Amino-3-aza-bicyclo[3.2.1]oct-3-yl)-[6-(4-hydroxy-phenyl)-3-methyl-1H-pyrazolo[3,4-b]pyridin-4-yl]-methanone] to `Cc1n[nH]c2nc(-c3ccc(O)cc3)cc(C(=O)N3C[C@H]4CNC[C@H]4C3)c12` [Example 250, (3aR,6aS)-Hexahydro-pyrrolo[3,4-c]pyrrol-2-yl-[6-(4-hydroxy-phenyl)-3-methyl-1H-pyrazolo[3,4-b]pyridin-4-yl]-methanone], the inhibition at 1.14 µM falls from 100% to 85%.

First: Cc1n[nH]c2nc(-c3ccc(O)cc3)cc(C(=O)N[C@@H]3[C@H]4CC[C@H](C4)[C@H]3CN)c12 [Example 228, 6-(4-Hydroxy-phenyl)-3-methyl-1H-pyrazolo[3,4-b]pyridine-4-carboxylic acid (3-aminomethyl-bicyclo[2.2.1]hept-2-yl)-amide]
Second: Cc1n[nH]c2nc(-c3ccc(O)cc3)cc(C(=O)N[C@H]3C[C@H](N)C3)c12 [Example 252, 6-(4-Hydroxy-phenyl)-3-methyl-1H-pyrazolo[3,4-b]pyridine-4-carboxylic acid (trans-3-amino-cyclobutyl)-amide]
The inhibition at 1.14 µM of the first is higher: 91% for the first, 72% for the second.

Compared with `Cc1n[nH]c2nc(-c3ccc(O)cc3)cc(C(=O)NC3CCC(N)CC3)c12` (stereo not shown) [Example 231, 6-(4-Hydroxy-phenyl)-3-methyl-1H-pyrazolo[3,4-b]pyridine-4-carboxylic acid (4-amino-cyclohexyl)-amide], `Cc1n[nH]c2nc(-c3ccc(O)cc3)cc(C(=O)NC3CNC3)c12` [Example 248, 6-(4-Hydroxy-phenyl)-3-methyl-1H-pyrazolo[3,4-b]pyridine-4-carboxylic acid azetidin-3-ylamide] is lower in inhibition at 1.14 µM: 84% for the first, 83% for the second.

Going from `Cc1n[nH]c2nc(-c3ccc(O)cc3)cc(C(=O)N3CCNC[C@H]3C(=O)NC(C)(C)C)c12` [Example 232, (S)-1-[6-(4-Hydroxy-phenyl)-3-methyl-1H-pyrazolo[3,4-b]pyridine-4-carbonyl]-piperazine-2-carboxylic acid tert-butylamide] to `CNC1CCN(C(=O)c2cc(-c3ccc(O)cc3)nc3[nH]nc(C)c23)C1` (stereo not shown) [Example 240, [6-(4-Hydroxy-phenyl)-3-methyl-1H-pyrazolo[3,4-b]pyridin-4-yl]-(3-methylamino-pyrrolidin-1-yl)-methanone], the inhibition at 1.14 µM falls from 95% to 94%.

Compared with `Cc1n[nH]c2nc(-c3ccc(O)cc3)cc(C(=O)N3CC4(CCNCC4)C3)c12` [Example 234, (2,7-Diaza-spiro[3.5]non-2-yl)-[6-(4-hydroxy-phenyl)-3-methyl-1H-pyrazolo[3,4-b]pyridin-4-yl]-methanone], `Cc1n[nH]c2nc(-c3ccc(O)cc3)cc(C(=O)N3CCC4(CCNCC4)CC3)c12` [Example 236, (3,9-Diaza-spiro[5.5]undec-3-yl)-[6-(4-hydroxy-phenyl)-3-methyl-1H-pyrazolo[3,4-b]pyridin-4-yl]-methanone] is lower in inhibition at 1.14 µM: 94% for the first, 84% for the second.

Going from `Cc1n[nH]c2nc(-c3ccc(O)cc3)cc(C(=O)N3CCC4(CCCNC4)C3)c12` (stereo not shown) [Example 235, (2,7-Diaza-spiro[4.5]dec-2-yl)-[6-(4-hydroxy-phenyl)-3-methyl-1H-pyrazolo[3,4-b]pyridin-4-yl]-methanone] to `Cc1n[nH]c2nc(-c3ccc(O)cc3)cc(C(=O)N3CCC4(CNCCO4)C3)c12` (stereo not shown) [Example 253, [6-(4-Hydroxy-phenyl)-3-methyl-1H-pyrazolo[3,4-b]pyridin-4-yl]-(6-oxa-2,9-diaza-spiro[4.5]dec-2-yl)-methanone], the inhibition at 1.14 µM falls from 89% to 73%.

First: Cc1n[nH]c2nc(-c3ccc(O)cc3)cc(C(=O)N3CC4(CCNCC4)c4ccccc43)c12 [Example 237]
Second: Cc1n[nH]c2nc(-c3ccc(O)cc3)cc(C(=O)N(C)C3CCNCC3)c12 [Example 241, 6-(4-Hydroxy-phenyl)-3-methyl-1H-pyrazolo[3,4-b]pyridine-4-carboxylic acid methyl-piperidin-4-yl-amide]
The inhibition at 1.14 µM of the first is lower: 59% for the first, 88% for the second.

Compared with `Cc1n[nH]c2nc(-c3ccc(O)cc3)cc(C(=O)N3CC[C@@H](N(C)C)C3)c12` [Example 238, ((R)-3-Dimethylamino-pyrrolidin-1-yl)-[6-(4-hydroxy-phenyl)-3-methyl-1H-pyrazolo[3,4-b]pyridin-4-yl]-methanone], `Cc1n[nH]c2nc(-c3ccc(O)cc3)cc(C(=O)N3CC[C@H](N(C)C)C3)c12` [Example 239, ((S)-3-Dimethylamino-pyrrolidin-1-yl)-[6-(4-hydroxy-phenyl)-3-methyl-1H-pyrazolo[3,4-b]pyridin-4-yl]-methanone] is higher in inhibition at 1.14 µM: 77% for the first, 78% for the second.

Compared with `Cc1n[nH]c2nc(-c3ccc(O)cc3)cc(C(=O)NCC3CCCNC3)c12` (stereo not shown) [Example 243, 6-(4-Hydroxy-phenyl)-3-methyl-1H-pyrazolo[3,4-b]pyridine-4-carboxylic acid (piperidin-3-ylmethyl)-amide], `Cc1n[nH]c2nc(-c3ccc(O)cc3)cc(C(=O)NCC3CCCCN3)c12` (stereo not shown) [Example 245, 6-(4-Hydroxy-phenyl)-3-methyl-1H-pyrazolo[3,4-b]pyridine-4-carboxylic acid (piperidin-2-ylmethyl)-amide] is higher in inhibition at 1.14 µM: 78% for the first, 83% for the second.

Compared with `CNCCCNC(=O)c1cc(-c2ccc(O)cc2)nc2[nH]nc(C)c12` [Example 244, 6-(4-Hydroxy-phenyl)-3-methyl-1H-pyrazolo[3,4-b]pyridine-4-carboxylic acid (3-methylamino-propyl)-amide], `Cc1n[nH]c2nc(-c3ccc(O)cc3)cc(C(=O)N3CC(N)C3)c12` [Example 247, (3-Amino-azetidin-1-yl)-[6-(4-hydroxy-phenyl)-3-methyl-1H-pyrazolo[3,4-b]pyridin-4-yl]-methanone] is lower in inhibition at 1.14 µM: 76% for the first, 69% for the second.

First: Cc1n[nH]c2nc(-c3ccc(O)cc3)cc(C(=O)N3CC[C@H](N)C3)c12 [Example 246, ((S)-3-Amino-pyrrolidin-1-yl)-[6-(4-hydroxy-phenyl)-3-methyl-1H-pyrazolo[3,4-b]pyridin-4-yl]-methanone]
Second: Cc1n[nH]c2nc(-c3ccc(O)cc3)cc(C(=O)N3CCC(N)CC3)c12 [Example 249, (4-Amino-piperidin-1-yl)-[6-(4-hydroxy-phenyl)-3-methyl-1H-pyrazolo[3,4-b]pyridin-4-yl]-methanone]
The inhibition at 1.14 µM of the first is higher: 88% for the first, 82% for the second.

— US8686150B2 (Sanofi, priority 2011, dated 2014)
